In patent US8906928B2, “Substituted pyrazolo-pyrrolo-pyridine-dione compounds” (ArQule, Inc., priority 2009, dated 2014):

Key:
Type in all cases: cell-based
MDA-MB = test: MTS assay (cell growth inhibition), MDA-MB; settings: MDA-MB cells, 72 hours incubation with test compound; concentration not given
Method: (§1) Cells were maintained at 37° C., 5% CO2 in DMEM media supplemented with 1% fetal bovine serum, penicillin/streptomycin and fungizone (Invitrogen). Cells were seeded into 96-well tissue culture plates at 3000 per well and cultured at 37° C. for 18 hours. Test compounds were dissolved and diluted to 300× in DMSO then diluted 1:40 in DMEM. Cells were incubated with test compounds for 72 hours followed by incubation with tetrazolium compound (3-(4,5-dimethylthiazol-2-yl)-5-(3-carboxymethoxyphenyl)-2-(4-sulfophenyl)-2H-tetrazolium, inner salt; MTS) and the electron coupling reagent, phenazine methosulfate (PMS) for 4 hours. […] The ability of compounds to inhibit cell growth in this assay is correlated with the reduction of dehydrogenase enzyme activity found in metabolically active cells. The measurement of the absorbance of the formazan was assessed using an ENVISION™ (Perkin Elmer) microplate reader at 492 nm. The calculated IC50 value is the concentration of the test compound that causes a 50% decrease in the absorbance.

NCI-H1299 = test: MTS assay (cell growth inhibition), NCI-H1299; settings: NCI-H1299 cells, 72 hours incubation with test compound; concentration not given
Method: as §1

PACA-2 = test: MTS assay (cell growth inhibition), PACA-2; settings: PACA-2 cells, 72 hours incubation with test compound; concentration not given
Method: as §1

DLD-1 = test: MTS assay (cell growth inhibition), DLD-1; settings: DLD-1 cells, 72 hours incubation with test compound; concentration not given
Method: as §1

Kato III = test: MTS assay (cell growth inhibition), Kato III; settings: Kato III cells, 72 hours incubation with test compound; concentration not given
Method: as §1

PC-3 = test: MTS assay (cell growth inhibition), PC-3; settings: PC-3 cells, 72 hours incubation with test compound; concentration not given
Method: as §1

Structure (SMILES) | MTS CELL KILL DATA (% INHIBITION) MDA-MB (MDA-MB) | MTS CELL KILL DATA (% INHIBITION) NCI-H1299 (NCI-H1299) | MTS CELL KILL DATA (% INHIBITION) PACA-2 (PACA-2) | MTS CELL KILL DATA (% INHIBITION) DLD-1 (DLD-1) | MTS CELL KILL DATA (% INHIBITION) Kato III (Kato III) | MTS CELL KILL DATA (% INHIBITION) PC-3 (PC-3)
CCCCOc1ccc(CN2C(=O)c3cnc4[nH]ncc4c3C2=O)cc1 [Example 15, 7-(4-butoxybenzyl)pyrazolo[3,4-b]pyrrolo[3,4-d]pyridine-6,8(3H,7H)-dione] | A (A = 80-100% INHIBITION) | C (C = <50% INHIBITION) | C (C = <50% INHIBITION) | C (C = <50% INHIBITION) | C (C = <50% INHIBITION) | B (B = 50-79% INHIBITION)
CC(C)OCCN1C(=O)c2cnc3[nH]ncc3c2C1=O [Example 16, 7-(2-isopropoxyethyl)pyrazolo[3,4-b]pyrrolo[3,4-d]pyridine-6,8(3H,7H)-dione] | B (B = 50-79% INHIBITION) | C (C = <50% INHIBITION) | B (B = 50-79% INHIBITION) | C (C = <50% INHIBITION) | C (C = <50% INHIBITION) | C (C = <50% INHIBITION)
O=C1c2cnc3[nH]ncc3c2C(=O)N1CCSc1nc2ccccc2s1 [Example 32, 7-[2-(1,3-benzothiazol-2-ylthio)ethyl]pyrazolo[3,4-b]pyrrolo[3,4-d]pyridine-6,8(3H,7H)-dione] | C (C = <50% INHIBITION) | C (C = <50% INHIBITION) | C (C = <50% INHIBITION) | C (C = <50% INHIBITION) | B (B = 50-79% INHIBITION) | A (A = 80-100% INHIBITION)
O=C1c2cnc3[nH]ncc3c2C(=O)N1Cc1ccncc1 [Example 43, 7-(pyridin-4-ylmethyl)pyrazolo[3,4-b]pyrrolo[3,4-d]pyridine-6,8(3H,7H)-dione] | A (A = 80-100% INHIBITION) | C (C = <50% INHIBITION) | A (A = 80-100% INHIBITION) | C (C = <50% INHIBITION) | C (C = <50% INHIBITION) | A (A = 80-100% INHIBITION)
NC(=O)c1ccc(-c2n[nH]c3ncc4c(c23)C(=O)N(CCc2ccccc2)C4=O)cc1 [Example 160, 4-[6,8-dioxo-7-(2-phenylethyl)-3,6,7,8-tetrahydropyrazolo[3,4-b]pyrrolo[3,4-d]pyridin-1-yl]benzamide] | A (A = 80-100% INHIBITION) | B (B = 50-79% INHIBITION) | A (A = 80-100% INHIBITION) | A (A = 80-100% INHIBITION) | A (A = 80-100% INHIBITION) | A (A = 80-100% INHIBITION)
Cc1ccc(Cl)c(CN2C(=O)c3cnc4[nH]ncc4c3C2=O)c1F [Example 19, 7-(6-chloro-2-fluoro-3-methylbenzyl)pyrazolo[3,4-b]pyrrolo[3,4-d]pyridine-6,8(3H,7H)-dione] | B (B = 50-79% INHIBITION) | C (C = <50% INHIBITION) | C (C = <50% INHIBITION) | C (C = <50% INHIBITION) | A (A = 80-100% INHIBITION) | A (A = 80-100% INHIBITION)
O=C1c2cnc3[nH]ncc3c2C(=O)N1CC1C[C@H]2CC[C@@H]1C2 (stereo partly drawn) [Example 35, 7-[(1R,4S)-bicyclo[2.2.1]hept-2-ylmethyl]pyrazolo[3,4-b]pyrrolo[3,4-d]pyridine-6,8(3H,7H)-dione] | C (C = <50% INHIBITION) | C (C = <50% INHIBITION) | C (C = <50% INHIBITION) | C (C = <50% INHIBITION) | C (C = <50% INHIBITION) | C (C = <50% INHIBITION)
